Assay results published in patent publication US10385031B2, “Substituted piperazines as selective HDAC1,2 inhibitors” (Regenacy Pharmaceuticals, LLC, priority 2016, dated 2019).

These compounds were tested against HDAC3 (Homo sapiens (Human), UniProt O15379) (assay: HDAC enzyme assay HDAC3).
Type: biochemical
Experimental: Compounds for testing were diluted in DMSO to 50 fold the final concentration and a ten-point three-fold dilution series was made. The compounds were diluted in assay buffer (50 mM HEPES, pH 7.4, 100 mM KCl, 0.001% Tween-20, 0.05% BSA, 20 μM TCEP) to 6-fold their final concentration. The HDAC enzymes (purchased from BPS Biosciences) were diluted to 1.5-fold their final concentration in assay buffer. The tripeptide substrate and trypsin at 0.05 μM final concentration were diluted in assay buffer at 6-fold their final concentration. The final enzyme concentrations used in these assays were 3.3 ng/ml (HDAC1), 0.2 ng/ml (HDAC2) and 0.08 ng/ml (HDAC3). The final substrate concentrations used were 16 μM (HDAC1), 10 μM (HDAC2) and 17 μM (HDAC3). Five μl of compounds and 20 μl of enzyme were added to wells of a black, opaque 384 well plate in duplicate. Enzyme and compound were incubated together at room temperature for 10 minutes. Five μl of substrate was added to each well, the plate was shaken for 60 seconds and placed into a Victor 2 microtiter plate reader. The development of fluorescence was monitored for 60 min and the linear rate of the reaction was calculated. The IC50 was determined using Graph Pad Prism by a four parameter curve fit. In Table 4 below, letter designations are defined as follows: […]

HDAC3, sequence (O15379 whole entry): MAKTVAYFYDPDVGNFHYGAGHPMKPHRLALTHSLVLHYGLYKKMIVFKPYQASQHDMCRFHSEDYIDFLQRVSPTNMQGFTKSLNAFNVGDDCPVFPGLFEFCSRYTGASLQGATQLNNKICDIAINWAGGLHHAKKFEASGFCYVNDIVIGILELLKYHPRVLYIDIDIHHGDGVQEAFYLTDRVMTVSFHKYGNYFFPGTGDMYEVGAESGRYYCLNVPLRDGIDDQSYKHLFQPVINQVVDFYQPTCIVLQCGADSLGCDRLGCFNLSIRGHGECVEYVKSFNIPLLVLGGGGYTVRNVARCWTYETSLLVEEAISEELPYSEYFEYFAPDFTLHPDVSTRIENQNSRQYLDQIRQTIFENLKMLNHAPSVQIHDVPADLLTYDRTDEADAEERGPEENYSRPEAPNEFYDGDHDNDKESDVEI
HDAC3, sequence (Q9Y618 395-489 partner): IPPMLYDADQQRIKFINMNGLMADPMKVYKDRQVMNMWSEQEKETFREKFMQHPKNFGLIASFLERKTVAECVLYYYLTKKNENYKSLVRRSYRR

IC50 | SMILES
10 to 500 nM | Nc1ccc(-c2ccco2)cc1NC(=O)c1ncc(N2CCNCC2)s1 [Compound 050]
10 to 500 nM | Nc1ccc(-c2ccoc2)cc1NC(=O)c1ncc(N2CCNCC2)s1 [Compound 051]
10 to 500 nM | Nc1ccc(-c2ccncc2)cc1NC(=O)c1ncc(N2CCNCC2)s1 [Compound 052]
10 to 500 nM | Nc1ccc(-c2ccc(F)cc2)cc1NC(=O)c1ncc(N2CCNCC2)s1 [Compound 053]
10 to 500 nM | CN1CCN(c2cnc(C(=O)Nc3cc(-c4ccco4)ccc3N)s2)CC1 [Compound 054]
> 500 nM | Nc1ccc(-c2ccco2)cc1NC(=O)c1nc(N2CCNCC2)cs1 [Compound 055]
> 500 nM | Nc1ccc(-c2ccoc2)cc1NC(=O)c1nc(N2CCNCC2)cs1 [Compound 056]
> 500 nM | Nc1ccc(-c2ccncc2)cc1NC(=O)c1nc(N2CCNCC2)cs1 [Compound 057]
10 to 500 nM | Nc1ccc(-c2ccc(F)cc2)cc1NC(=O)c1nc(N2CCNCC2)cs1 [Compound 058]

The next lines start with the compound.

SMILES | IC50
Nc1ccc(-c2ccco2)cc1NC(=O)c1cnc(N2CCNCC2)s1 [Compound 034] | 10 to 500 nM
Nc1ccc(-c2ccc(F)cc2)cc1NC(=O)c1cnc(N2CCNCC2)s1 [Compound 037] | 10 to 500 nM
Cc1nc(C(=O)Nc2cc(-c3cccs3)ccc2N)sc1N1CCNCC1 [Compound 041] | 10 to 500 nM
Cc1nc(C(=O)Nc2cc(-c3ccco3)ccc2N)sc1N1CCNCC1 [Compound 042] | 10 to 500 nM
Cc1nc(C(=O)Nc2cc(-c3ccoc3)ccc2N)sc1N1CCNCC1 [Compound 043] | > 500 nM
Nc1ccc(-c2ccccn2)cc1NC(=O)c1cnc(N2CCNCC2)s1 [Compound 044] | > 500 nM
Nc1ccc(-c2cccnc2)cc1NC(=O)c1cnc(N2CCNCC2)s1 [Compound 045] | 10 to 500 nM
Nc1ccc(-c2ccoc2)cc1NC(=O)c1cnc(N2CCNCC2)s1 [Compound 046] | 10 to 500 nM
Nc1ccc(-c2ccccc2)cc1NC(=O)c1cnc(N2CCNCC2)s1 [Compound 047] | > 500 nM
CN1CCN(c2ncc(C(=O)Nc3cc(-c4ccccc4)ccc3N)s2)CC1 [Compound 048] | > 500 nM
Nc1ccc(-c2ccccc2)cc1NC(=O)c1ncc(N2CCNCC2)s1 [Compound 049] | 10 to 500 nM

Each compound was assayed against HDAC2 (Homo sapiens (Human), UniProt Q92769) (assay: HDAC enzyme assay HDAC2).
HDAC2, sequence (Q92769 whole entry): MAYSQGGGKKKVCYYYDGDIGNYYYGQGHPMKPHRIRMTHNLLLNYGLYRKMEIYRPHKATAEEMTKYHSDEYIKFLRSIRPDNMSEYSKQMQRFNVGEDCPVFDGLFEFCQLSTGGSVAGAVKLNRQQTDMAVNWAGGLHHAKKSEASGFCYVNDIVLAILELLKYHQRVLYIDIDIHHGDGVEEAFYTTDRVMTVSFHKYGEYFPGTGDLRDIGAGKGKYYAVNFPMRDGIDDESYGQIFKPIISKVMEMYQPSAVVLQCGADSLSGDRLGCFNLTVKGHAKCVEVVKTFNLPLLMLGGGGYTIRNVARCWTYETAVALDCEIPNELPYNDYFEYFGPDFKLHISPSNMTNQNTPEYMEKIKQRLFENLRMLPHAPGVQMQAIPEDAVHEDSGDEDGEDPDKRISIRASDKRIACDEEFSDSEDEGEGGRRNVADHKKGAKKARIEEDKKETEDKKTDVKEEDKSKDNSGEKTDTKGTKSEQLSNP
Type: biochemical
Experimental: Compounds for testing were diluted in DMSO to 50 fold the final concentration and a ten-point three-fold dilution series was made. The compounds were diluted in assay buffer (50 mM HEPES, pH 7.4, 100 mM KCl, 0.001% Tween-20, 0.05% BSA, 20 μM TCEP) to 6-fold their final concentration. The HDAC enzymes (purchased from BPS Biosciences) were diluted to 1.5-fold their final concentration in assay buffer. The tripeptide substrate and trypsin at 0.05 μM final concentration were diluted in assay buffer at 6-fold their final concentration. The final enzyme concentrations used in these assays were 3.3 ng/ml (HDAC1), 0.2 ng/ml (HDAC2) and 0.08 ng/ml (HDAC3). The final substrate concentrations used were 16 μM (HDAC1), 10 μM (HDAC2) and 17 μM (HDAC3).
Five μl of compounds and 20 μl of enzyme were added to wells of a black, opaque 384 well plate in duplicate. Enzyme and compound were incubated together at room temperature for 10 minutes. Five μl of substrate was added to each well, the plate was shaken for 60 seconds and placed into a Victor 2 microtiter plate reader. The development of fluorescence was monitored for 60 min and the linear rate of the reaction was calculated. The IC50 was determined using Graph Pad Prism by a four parameter curve fit.

IC50 | SMILES
10 to 500 nM | Nc1ccc(-c2ccco2)cc1NC(=O)c1ncc(N2CCNCC2)s1 [Compound 050]
< 10 nM | Nc1ccc(-c2ccoc2)cc1NC(=O)c1ncc(N2CCNCC2)s1 [Compound 051]
10 to 500 nM | Nc1ccc(-c2ccncc2)cc1NC(=O)c1ncc(N2CCNCC2)s1 [Compound 052]
< 10 nM | Nc1ccc(-c2ccc(F)cc2)cc1NC(=O)c1ncc(N2CCNCC2)s1 [Compound 053]
10 to 500 nM | CN1CCN(c2cnc(C(=O)Nc3cc(-c4ccco4)ccc3N)s2)CC1 [Compound 054]
10 to 500 nM | Nc1ccc(-c2ccco2)cc1NC(=O)c1nc(N2CCNCC2)cs1 [Compound 055]
10 to 500 nM | Nc1ccc(-c2ccoc2)cc1NC(=O)c1nc(N2CCNCC2)cs1 [Compound 056]
10 to 500 nM | Nc1ccc(-c2ccncc2)cc1NC(=O)c1nc(N2CCNCC2)cs1 [Compound 057]
10 to 500 nM | Nc1ccc(-c2ccc(F)cc2)cc1NC(=O)c1nc(N2CCNCC2)cs1 [Compound 058]

The next lines start with the compound.

SMILES | IC50
Nc1ccc(-c2ccco2)cc1NC(=O)c1cnc(N2CCNCC2)s1 [Compound 034] | 10 to 500 nM
Nc1ccc(-c2ccc(F)cc2)cc1NC(=O)c1cnc(N2CCNCC2)s1 [Compound 037] | 10 to 500 nM
Cc1nc(C(=O)Nc2cc(-c3cccs3)ccc2N)sc1N1CCNCC1 [Compound 041] | 10 to 500 nM
Cc1nc(C(=O)Nc2cc(-c3ccco3)ccc2N)sc1N1CCNCC1 [Compound 042] | 10 to 500 nM
Cc1nc(C(=O)Nc2cc(-c3ccoc3)ccc2N)sc1N1CCNCC1 [Compound 043] | 10 to 500 nM
Nc1ccc(-c2ccccn2)cc1NC(=O)c1cnc(N2CCNCC2)s1 [Compound 044] | 10 to 500 nM
Nc1ccc(-c2cccnc2)cc1NC(=O)c1cnc(N2CCNCC2)s1 [Compound 045] | 10 to 500 nM
Nc1ccc(-c2ccoc2)cc1NC(=O)c1cnc(N2CCNCC2)s1 [Compound 046] | 10 to 500 nM
Nc1ccc(-c2ccccc2)cc1NC(=O)c1cnc(N2CCNCC2)s1 [Compound 047] | 10 to 500 nM
CN1CCN(c2ncc(C(=O)Nc3cc(-c4ccccc4)ccc3N)s2)CC1 [Compound 048] | 10 to 500 nM
Nc1ccc(-c2ccccc2)cc1NC(=O)c1ncc(N2CCNCC2)s1 [Compound 049] | 10 to 500 nM

Each compound was assayed against HDAC1 (Homo sapiens (Human), UniProt Q13547) (assay: HDAC enzyme assay HDAC1).
HDAC1, sequence (Q13547 whole entry): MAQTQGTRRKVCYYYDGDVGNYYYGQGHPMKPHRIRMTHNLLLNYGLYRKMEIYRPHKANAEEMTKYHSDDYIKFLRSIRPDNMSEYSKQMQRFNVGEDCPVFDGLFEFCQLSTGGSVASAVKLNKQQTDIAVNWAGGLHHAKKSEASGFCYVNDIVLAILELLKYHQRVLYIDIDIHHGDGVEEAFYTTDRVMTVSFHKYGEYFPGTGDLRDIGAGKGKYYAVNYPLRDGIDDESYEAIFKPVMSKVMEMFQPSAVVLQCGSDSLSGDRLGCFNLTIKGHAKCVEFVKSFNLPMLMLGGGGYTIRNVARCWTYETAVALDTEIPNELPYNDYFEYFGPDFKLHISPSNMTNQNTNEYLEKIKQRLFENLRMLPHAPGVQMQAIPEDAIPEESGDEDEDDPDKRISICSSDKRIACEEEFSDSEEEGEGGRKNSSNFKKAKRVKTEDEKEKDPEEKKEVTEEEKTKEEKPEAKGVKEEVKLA
Type: biochemical

IC50 | SMILES
< 10 nM | Nc1ccc(-c2ccco2)cc1NC(=O)c1ncc(N2CCNCC2)s1 [Compound 050]
< 10 nM | Nc1ccc(-c2ccoc2)cc1NC(=O)c1ncc(N2CCNCC2)s1 [Compound 051]
< 10 nM | Nc1ccc(-c2ccncc2)cc1NC(=O)c1ncc(N2CCNCC2)s1 [Compound 052]
< 10 nM | Nc1ccc(-c2ccc(F)cc2)cc1NC(=O)c1ncc(N2CCNCC2)s1 [Compound 053]
< 10 nM | CN1CCN(c2cnc(C(=O)Nc3cc(-c4ccco4)ccc3N)s2)CC1 [Compound 054]
> 500 nM | Nc1ccc(-c2ccco2)cc1NC(=O)c1nc(N2CCNCC2)cs1 [Compound 055]
10 to 500 nM | Nc1ccc(-c2ccoc2)cc1NC(=O)c1nc(N2CCNCC2)cs1 [Compound 056]
> 500 nM | Nc1ccc(-c2ccncc2)cc1NC(=O)c1nc(N2CCNCC2)cs1 [Compound 057]
10 to 500 nM | Nc1ccc(-c2ccc(F)cc2)cc1NC(=O)c1nc(N2CCNCC2)cs1 [Compound 058]

Second part, the compound before the results:

SMILES | IC50
Nc1ccc(-c2ccco2)cc1NC(=O)c1cnc(N2CCNCC2)s1 [Compound 034] | < 10 nM
Nc1ccc(-c2ccc(F)cc2)cc1NC(=O)c1cnc(N2CCNCC2)s1 [Compound 037] | < 10 nM
Cc1nc(C(=O)Nc2cc(-c3cccs3)ccc2N)sc1N1CCNCC1 [Compound 041] | < 10 nM
Cc1nc(C(=O)Nc2cc(-c3ccco3)ccc2N)sc1N1CCNCC1 [Compound 042] | < 10 nM
Cc1nc(C(=O)Nc2cc(-c3ccoc3)ccc2N)sc1N1CCNCC1 [Compound 043] | < 10 nM
Nc1ccc(-c2ccccn2)cc1NC(=O)c1cnc(N2CCNCC2)s1 [Compound 044] | 10 to 500 nM
Nc1ccc(-c2cccnc2)cc1NC(=O)c1cnc(N2CCNCC2)s1 [Compound 045] | 10 to 500 nM
Nc1ccc(-c2ccoc2)cc1NC(=O)c1cnc(N2CCNCC2)s1 [Compound 046] | < 10 nM
Nc1ccc(-c2ccccc2)cc1NC(=O)c1cnc(N2CCNCC2)s1 [Compound 047] | < 10 nM
CN1CCN(c2ncc(C(=O)Nc3cc(-c4ccccc4)ccc3N)s2)CC1 [Compound 048] | < 10 nM
